Measurements from patent publication US6342511B1, “Phencyclidine derivatives, preparation method and pharmaceutical compositions containing same” (Societe de Conseils de Recherches et d'Applications …, priority 1977, dated 2002).
Like-named read-outs stand apart in the source and are kept apart here.

Experiments:
Format in all cases: binding
PCP3 sites = assay: [3H]TCP displacement, cerebellum membranes, 2-site model, PCP3; conditions: [3H]TCP 2.5 nM, rat cerebellum
Experimental: (§1) The affinity of the compounds for their potential bond site, can be evaluated by quantifying their ability to displace a specific tritiated label of a given site. The bond experiences are carried out by competition between the molecule to be tested and the appropriate radioligand on a membrane preparation rich in sites to be studied. The concentration of the derivative tested which inhibits 50% of the bond of the radioligand to the receptor is called IC50.
(§2) For the experimental conditions and membrane preparation techniques used, reference can be made to the literature (Brain Res., 378, 133-141 (1986); Eur. J. Pharm., 81, 531-542 (1982)).
(§3) For low affinity sites, the monosite treatment used led to incoherent results. The experimental data have therefore been reprocessed using non-linear regression (Marquardt-Levenberg algorithm) with Sigma Plot software (Jandel) according to a model with two noted sites of interaction PCP2 and PCP3. This processing proves to be more suitable than a monosite treatment (Student test: p<0.05) over a set of 3 to 4 experiments for each compound tested. Over all the experiments, the two site populations are found in a relative proportion to 68.0% (±1.5) for the PCP2 sites and 31.2% (±1.5) for the PCP3 sites.
(§4) For the PCP2 and PCP3 sites, the preparation originates from rat cerebella. Not having a specific label, only [^3H]TCP can be used. A more significant concentration of tritiated ligand (2.5 nM versus 1 nM in the cortex) is used to ensure that all the PCP2 and PCP3 sites are occupied.

PCP2 sites = assay: [3H]TCP displacement, cerebellum membranes, 2-site model, PCP2; conditions: [3H]TCP 2.5 nM, rat cerebellum
Experimental: as §1, §2, §3, §4

PCP1 sites = biological target: T1, PCP1 sites (Rattus norvegicus, UniProt P35439); assay: [3H]TCP displacement, cortex membranes, 1-site model; conditions: for cortex 1 site nH: Hill number of the cortex displacement curve
T1 construct: membrane preparations originating from anterior cerebrum homogenates of rats; from tissue; host or cells: rat anterior cerebrum (forebrain/cortex) membranes
Experimental: as §1, with “studied.” for “studied. The concentration of the derivative tested which inhibits 50% of the bond of the radioligand to the receptor is called IC50.”
For the PCP1 sites, the tritiated label used is [^3H]TCP and the tests are carried out on membrane preparations originating from anterior cerebrum homogenates of rats.

PCP receptors = biological target: T2, PCP receptors (Rattus norvegicus, UniProt P35439); assay: Percentage inhibition on PCP receptors ([3H]TCP, cerebral cortex membranes); conditions: compound 10 μM
T2 construct: membrane preparations originating from cerebral cortex of a rat; from tissue; host or cells: rat cerebral cortex membranes
Experimental: Percentage inhibition on PCP receptors:
The tritiated label used is [^3H]TCP and the tests are carried out on membrane preparations originating from cerebral cortex of a rat (Brain Res., 378, 133-141 (1986).

[1] = [3H]TCP 1 nM, rat cortex (anterior cerebrum) membranes, read-out: cortex 1 site IC50
[2] = cortex 1 site IC50, [3H]TCP 1 nM, rat cortex membranes, bound in μM
[3] = cortex 1 site IC50, [3H]TCP 1 nM, rat cortex (anterior cerebrum) membranes

SMILES	IC50 (PCP3 sites; two-site non-linear regression)	IC50 (PCP2 sites; two-site non-linear regression)	cortex 1 site nH (PCP1 sites)	IC50 (PCP1 sites; [1])	IC50 (PCP2 sites; bound in μM)	IC50 (PCP1 sites; [2])	IC50 (PCP1 sites; [3])	inhibition at 10 µM (PCP receptors)	IC50 (PCP3 sites; bound in μM)
CC1CCCN(C2(c3cccs3)CCSCC2)C1 (racemic) [Ex 2, (±)-N-[4-(2-thienyl)-tetrahydro-4H-thiopyran-4-yl]-3-methyl-piperidine]	2.85 µM	0.265 µM	1.14	0.132 µM	–	–	–	–	–
CC1CCCN(C2(c3cc4ccccc4s3)CCSCC2)C1 (racemic) [Ex 5, (±)-N-[4-(2-benzothiophenyl)-tetrahydro-4H-thiopyran-4-yl]-3-methyl-piperidine]	0.581 µM	–	–	–	> 100 µM	> 100 µM	–	–	–
CC1CCCN(C2(c3cccs3)CCCCC2)C1 (racemic) [Ex 22 (±), N-[1-(2-thienyl)-cyclohexan-1-yl]-3-methyl piperidine]	1.45 µM	0.0473 µM	1.09	–	–	–	0.0055 µM	–	–
CC1CSCCC1(c1cccs1)N1CCCCC1 (single isomer, unassigned) [Ex 1 (majority), N-[4-(2-thienyl)-3-methyl-tetrahydro-4H-thiopyran-4-yl] piperidine]	–	–	0.94	–	–	–	17.2 µM	–	–
CC1CSCCC1(c1cccs1)N1CCCCC1 (single isomer, unassigned) [Ex 1 (minority), N-[4-(2-thienyl)-3-methyl-tetrahydro-4H-thiopyran-4-yl] piperidine]	0.0176 µM	1.35 µM	0.89	–	–	–	0.0268 µM	–	–
CC1CCCN(C2(c3cccs3)CCCCC2)C1 (single isomer, unassigned) [Ex 22 (+), N-[1-(2-thienyl)-cyclohexan-1-yl]-3-methyl piperidine]	0.808 µM	0.0283 µM	1.04	–	–	–	0.0052 µM	–	–
CC1CCCN(C2(c3cccs3)CCCCC2)C1 (single isomer, unassigned) [Ex 22 (−), N-[1-(2-thienyl)-cyclohexan-1-yl]-3-methyl piperidine]	–	–	1.08	–	–	–	0.158 µM	–	–
C[C@@H]1CCCN(C2(c3cccs3)CCSCC2)C1 [Ex 4, R-(+)-N-[4-(2-thienyl)-tetrahydro-4H-thiopyran-4-yl]-3-methyl-piperidine]	2.08 µM	0.0532 µM	0.84	0.024 µM	–	–	–	–	–
C[C@@H]1CCCN(C2(c3cc4ccccc4s3)CCSCC2)C1 [Ex 6, R-(+)-N-[4-(2-benzothiophenyl)-tetrahydro-4H-thiopyran-4-yl]-3-methyl-piperidine]	0.28 µM	–	–	–	> 100 µM	> 100 µM	–	–	–
C[C@H]1CCCN(C2(c3cc4ccccc4s3)CCSCC2)C1 [Ex 7, S-(−)-N-[4-(2-benzothiophenyl)-tetrahydro-4H-thiopyran-4-yl]-3-methyl-piperidine]	0.639 µM	84 µM	0.73	–	–	–	82.8 µM	–	–
OCC1CCCN(C2(c3cccs3)CCCCC2)C1 (stereo not drawn) [Ex 8, N-[1-(2-thienyl)-cyclohexan-1-yl]-3-hydroxymethyl-piperidine]	0.0124 µM	2.24 µM	0.96	0.0284 µM	–	–	–	–	–
c1coc(C2(N3CCCCC3)CCSCC2)c1 [Ex 9, N-[4-(2-furyl)-tetrahydro-4H-thiopyran-4-yl]-piperidine]	0.0138 µM	1.02 µM	0.87	0.133 µM	–	–	–	96%	–
c1ccc2oc(C3(N4CCCCC4)CCSCC3)cc2c1 [Ex 10, N-[4-(2-benzofuryl)-tetrahydro-4H-thiopyran-4-yl]-piperidine]	0.0591 µM	26.6 µM	0.9	27.5 µM	–	–	–	18%	–
Cc1ccc(C2(N3CCCCC3)CCSCC2)s1 [Ex 11, N-[4-(5-methyl-thiophen-2-yl)-tetrahydro-4H-thiopyran-4-yl]-piperidine]	–	0.532 µM	0.97	0.462 µM	–	–	–	–	> 100 µM
Cc1csc(C2(N3CCCCC3)CCSCC2)c1 [Ex 12, N-[4-(4-methyl-thiophen-2-yl)-tetrahydro-4H-thiopyran-4-yl]-piperidine]	0.0054 µM	0.772 µM	0.93	0.0778 µM	–	–	–	–	–
CCNC1(c2cccs2)CCCCC1 [Ex 17, N-ethyl-1-(2-thienyl)-cyclohexylamine]	47.6 µM	0.055 µM	0.77	–	–	–	0.0209 µM	–	–
c1coc(C2(N3CCCCC3)CCCCC2)c1 [Ex 18, N-[1-(2-furyl)-cyclohexan-1-yl] piperidine]	0.0056 µM	0.187 µM	0.83	0.0078 µM	–	–	–	–	–
c1csc(C2(N3CCCCC3)CCSCC2)c1 [Ex 19, N-[4-(2-thienyl)-tetrahydro-4H-thiopyran-4-yl] piperidine]	0.0085 µM	0.586 µM	1.05	0.0716 µM	–	–	–	–	–
c1csc(C2(N3CCCCC3)CCOCC2)c1 [Ex 20, N-[4-(2-thienyl)-tetrahydro-4H-pyran-4-yl] piperidine]	0.035 µM	5.84 µM	0.98	1.22 µM	–	–	–	–	–
c1csc(C2(N3CCCCC3)CCCSC2)c1 (stereo not drawn) [Ex 21, N-[3-(2-thienyl)-tetrahydro-4H-thiopyran-3-yl] piperidine]	0.008 µM	0.659 µM	1.00	0.0734 µM	–	–	–	–	–
c1csc(C2(N3CCCCC3)CCCCC2)c1 [TCP, N-(1-(2-thienyl)cyclohexyl)piperidine, reference compound]	3.72 µM	0.059 µM	–	–	–	–	–	–	–
